# Measurements published in patent publication US8084649B2, “Herbicides” (Syngenta Crop Protection, inc., priority 2007, dated 2011).
# Columns and labels:
# Assay type in all cases: in vivo
# [1] = tested on: Alopecurus myosuroides (ALOMY); assay: Pre-emergence herbicidal activity, glasshouse pot test; settings: Alopecurus myosuroides, 480 h, rate 500 g/ha, evaluated after 20 days, read-out: Pre-emergence activity, ALOMY (100=total damage to plant; 0=no damage to plant)
# Method in brief: (§1)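 Pre-emergence application: sprayed one day after seeding into pots of sterilised standard soil. After 20 days' growth in a greenhouse, percent damage was scored visually, 0 meaning unharmed and 100 total damage.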
# [2] = tested on: Avena fatua (AVEFA); assay: as above; settings: Avena fatua, 480 h, rate 500 g/ha, evaluated after 20 days, read-out: Pre-emergence activity, AVEFA (100=total damage to plant; 0=no damage to plant)
# Method in brief: as §1
# [3] = tested on: Digitaria sanguinalis (DIGSA); assay: as above; settings: Digitaria sanguinalis, 480 h, rate 500 g/ha, evaluated after 20 days, read-out: Pre-emergence activity, DIGSA (100=total damage to plant; 0=no damage to plant)
# Method in brief: as §1
# [4] = tested on: Echinochloa crus-galli (ECHCG); assay: as above; settings: Echinochloa crus-galli, 480 h, rate 500 g/ha, evaluated after 20 days, read-out: Pre-emergence activity, ECHCG (100=total damage to plant; 0=no damage to plant)
# Method in brief: as §1
# [5] = tested on: Lolium perenne (LOLPE); assay: as above; settings: Lolium perenne, 480 h, rate 500 g/ha, evaluated after 20 days, read-out: Pre-emergence activity, LOLPE (100=total damage to plant; 0=no damage to plant)
# Method in brief: as §1
# [6] = tested on: Setaria faberi (SETFA); assay: as above; settings: Setaria faberi, 480 h, rate 500 g/ha, evaluated after 20 days, read-out: Pre-emergence activity, SETFA (100=total damage to plant; 0=no damage to plant)
# Method in brief: as §1
# [7] = tested on: Alopecurus myosuroides (ALOMY); assay: Post-emergence herbicidal activity, glasshouse pot test; settings: Alopecurus myosuroides, evaluated after 14 or 15 days, read-out: Post-emergence activity, ALOMY (100=total damage to plant; 0=no damage to plant); for pest or weed control at 125 g/ha: rate 125 g/ha; for pest or weed control at 500 g/ha: rate 500 g/ha
# Method in brief: (§2)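 Plants sown in sterilised standard soil, grown 10 days in glasshouse, then sprayed with aqueous dilution of active ingredient formulated in acetone plus Emulsogen EL/N-methylpyrrolidone/dipropylene glycol monomethyl ether/X-77 solution. Damage scored visually 14 or 15 days after spraying, 0 (none) to 100 (total).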
# [8] = tested on: Avena fatua (AVEFA); assay: as above; settings: Avena fatua, evaluated after 14 or 15 days, read-out: Post-emergence activity, AVEFA (100=total damage to plant; 0=no damage to plant); for pest or weed control at 125 g/ha: rate 125 g/ha; for pest or weed control at 500 g/ha: rate 500 g/ha
# Method in brief: as §2
# [9] = tested on: Digitaria sanguinalis (DIGSA); assay: as above; settings: Digitaria sanguinalis, evaluated after 14 or 15 days, read-out: Post-emergence activity, DIGSA (100=total damage to plant; 0=no damage to plant); for pest or weed control at 125 g/ha: rate 125 g/ha; for pest or weed control at 500 g/ha: rate 500 g/ha
# Method in brief: as §2
# [10] = tested on: Echinochloa crus-galli (ECHCG); assay: as above; settings: Echinochloa crus-galli, evaluated after 14 or 15 days, read-out: Post-emergence activity, ECHCG (100=total damage to plant; 0=no damage to plant); for pest or weed control at 125 g/ha: rate 125 g/ha; for pest or weed control at 500 g/ha: rate 500 g/ha
# Method in brief: as §2
# [11] = tested on: Lolium perenne (LOLPE); assay: as above; settings: Lolium perenne, evaluated after 14 or 15 days, read-out: Post-emergence activity, LOLPE (100=total damage to plant; 0=no damage to plant); for pest or weed control at 125 g/ha: rate 125 g/ha; for pest or weed control at 500 g/ha: rate 500 g/ha
# Method in brief: as §2
# [12] = tested on: Setaria faberi (SETFA); assay: as above; settings: Setaria faberi, evaluated after 14 or 15 days, read-out: Post-emergence activity, SETFA (100=total damage to plant; 0=no damage to plant); for pest or weed control at 125 g/ha: rate 125 g/ha; for pest or weed control at 500 g/ha: rate 500 g/ha
# Method in brief: as §2
Structure (SMILES),pest or weed control at 500 g/ha [1],pest or weed control at 500 g/ha [2],pest or weed control at 500 g/ha [3],pest or weed control at 500 g/ha [4],pest or weed control at 500 g/ha [5],pest or weed control at 500 g/ha [6],pest or weed control at 125 g/ha [7],pest or weed control at 125 g/ha [8],pest or weed control at 125 g/ha [9],pest or weed control at 125 g/ha [10],pest or weed control at 125 g/ha [11],pest or weed control at 125 g/ha [12],pest or weed control at 500 g/ha [7],pest or weed control at 500 g/ha [8],pest or weed control at 500 g/ha [9],pest or weed control at 500 g/ha [10],pest or weed control at 500 g/ha [11],pest or weed control at 500 g/ha [12]
CCc1cc(C)cc(CC)c1C1=C(OS(=O)(=O)Cc2ccccc2)CC2(CCOCC2)CC1=O [Compound P26],80%,80%,60%,40%,90%,70%,10%,0%,10%,0%,0%,0%,–,–,–,–,–,–
CCc1cc(C)cc(CC)c1C1=C(OS(=O)(=O)CC(F)(F)F)CC2(CCOCC2)CC1=O [Compound P27],100%,100%,100%,100%,100%,100%,70%,50%,70%,70%,70%,50%,–,–,–,–,–,–
CCCS(=O)(=O)OC1=C(c2c(CC)cc(C)cc2CC)C(=O)CC2(CCOCC2)C1 [Compound P29],60%,60%,80%,10%,60%,60%,30%,0%,50%,30%,10%,30%,–,–,–,–,–,–
CCc1cc(C)cc(CC)c1C1=C(OC)CC2(CCOCC2)CC1=O [Compound P32],100%,100%,50%,20%,100%,10%,20%,0%,0%,0%,0%,0%,–,–,–,–,–,–
CCOC1=C(c2c(CC)cc(C)cc2CC)C(=O)CC2(CCOCC2)C1 [Compound P33],90%,30%,70%,10%,50%,10%,20%,0%,30%,0%,0%,0%,–,–,–,–,–,–
CCCCCCCCCCCC(=O)OC1=C(c2c(CC)cc(C)cc2CC)C(=O)CC2(CCOCC2)C1 [Compound P44],100%,100%,100%,100%,100%,100%,80%,90%,100%,90%,90%,90%,–,–,–,–,–,–
CCCCCCCCCCCCCCCC(=O)OC1=C(c2c(CC)cc(C)cc2CC)C(=O)CC2(CCOCC2)C1 [Compound P45],80%,100%,100%,100%,100%,100%,30%,60%,20%,10%,0%,10%,–,–,–,–,–,–
CCc1cc(C)cc(CC)c1C1=C(OC(=O)CCCCCCC(=O)OC)CC2(CCOCC2)CC1=O [Compound P46],100%,100%,100%,100%,100%,100%,90%,100%,90%,100%,90%,90%,–,–,–,–,–,–
C=CCCCCCCCCC(=O)OC1=C(c2c(CC)cc(C)cc2CC)C(=O)CC2(CCOCC2)C1 [Compound P47],100%,100%,100%,100%,100%,100%,70%,60%,70%,70%,50%,60%,–,–,–,–,–,–
CCc1cc(CC)c(C2=C(OC(=O)C(C)(C)C)CC3(CCOCC3)CC2=O)c(CC)c1 [Compound P49],100%,60%,100%,100%,100%,100%,–,–,–,–,–,–,60%,10%,90%,90%,50%,80%
COC1CCC2(CC1)CC(=O)C(c1cc(C)ccc1C)=C(OC(=O)CC(C)(C)C)C2 (stereo not drawn) [Compound P56],100%,60%,100%,80%,60%,100%,–,–,–,–,–,–,70%,10%,80%,80%,70%,70%
CCc1cc(C)cc(CC)c1C1=C(OC(=O)C(C)(C)C)CC2(CCCSC2)CC1=O (stereo not drawn) [Compound P59],20%,10%,100%,50%,10%,70%,40%,0%,80%,30%,20%,60%,–,–,–,–,–,–
CCc1cc(C)cc(CC)c1C1=C(OC(=O)C(C)(C)C)CC(CC(C)SC(C)C)CC1=O (stereo not drawn) [Compound P60],80%,0%,100%,90%,100%,90%,70%,50%,60%,70%,70%,60%,–,–,–,–,–,–
